Assays:
[1] = target: Phenylalanine--tRNA ligase beta subunit (Homo sapiens) (UniProt Q9NSD9)
[2] = target: Small ribosomal subunit protein uS11 (Homo sapiens) (UniProt P62263)
[3] = target: Rapamycin-insensitive companion of mTOR (Homo sapiens) (UniProt Q6R327)
[4] = target: Glutathione S-transferase kappa 1 (Homo sapiens) (UniProt Q9Y2Q3)
[5] = target: Solute carrier family 2, facilitated glucose transporter member 1 (Homo sapiens) (UniProt P11166)
[6] = target: Lysine-specific histone demethylase 1A (Homo sapiens) (UniProt O60341)
[7] = target: BAG family molecular chaperone regulator 2 (Homo sapiens) (UniProt O95816)
[8] = target: RNA-binding protein 14 (Homo sapiens) (UniProt Q96PK6)
[9] = target: Rho guanine nucleotide exchange factor 1 (Homo sapiens) (UniProt Q92888)
[10] = target: WASH complex subunit 4 (Homo sapiens) (UniProt Q2M389)
Chain of WASH complex subunit 4 (Homo sapiens) (Q2M389 whole entry, one chain of several): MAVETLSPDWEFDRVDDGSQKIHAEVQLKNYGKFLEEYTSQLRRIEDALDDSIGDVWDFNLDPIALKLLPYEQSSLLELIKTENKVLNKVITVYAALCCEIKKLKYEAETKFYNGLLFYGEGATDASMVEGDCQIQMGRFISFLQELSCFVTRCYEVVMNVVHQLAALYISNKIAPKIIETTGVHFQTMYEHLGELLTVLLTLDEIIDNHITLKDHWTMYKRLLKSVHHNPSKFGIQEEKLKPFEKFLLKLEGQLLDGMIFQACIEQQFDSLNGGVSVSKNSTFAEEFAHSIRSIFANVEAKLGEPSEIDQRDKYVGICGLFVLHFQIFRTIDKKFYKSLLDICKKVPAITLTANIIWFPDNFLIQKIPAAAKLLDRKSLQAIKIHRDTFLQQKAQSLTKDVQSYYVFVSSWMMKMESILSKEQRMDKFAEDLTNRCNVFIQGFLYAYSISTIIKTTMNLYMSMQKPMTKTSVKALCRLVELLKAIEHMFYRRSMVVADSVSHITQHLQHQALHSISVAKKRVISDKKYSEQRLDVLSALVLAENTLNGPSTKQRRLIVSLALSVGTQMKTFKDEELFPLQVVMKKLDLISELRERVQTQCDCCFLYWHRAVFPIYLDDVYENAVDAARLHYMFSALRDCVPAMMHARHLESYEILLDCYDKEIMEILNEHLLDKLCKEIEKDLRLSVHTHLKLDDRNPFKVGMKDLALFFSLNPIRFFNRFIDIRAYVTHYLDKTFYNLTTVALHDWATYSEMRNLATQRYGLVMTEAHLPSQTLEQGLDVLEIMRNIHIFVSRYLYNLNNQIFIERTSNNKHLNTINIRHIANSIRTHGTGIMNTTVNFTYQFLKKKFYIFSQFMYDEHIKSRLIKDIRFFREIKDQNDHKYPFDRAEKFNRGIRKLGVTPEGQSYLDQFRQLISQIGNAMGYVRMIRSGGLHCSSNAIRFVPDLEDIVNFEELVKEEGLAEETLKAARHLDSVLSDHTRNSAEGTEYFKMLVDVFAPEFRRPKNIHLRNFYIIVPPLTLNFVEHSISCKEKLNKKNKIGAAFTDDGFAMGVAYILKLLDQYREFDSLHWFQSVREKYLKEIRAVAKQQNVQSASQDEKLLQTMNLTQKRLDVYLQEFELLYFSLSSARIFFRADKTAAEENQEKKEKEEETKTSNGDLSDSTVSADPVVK

Macoilin (Homo sapiens) = Macoilin (Homo sapiens) (UniProt Q8N5G2)
Chain of Macoilin (Homo sapiens) (Q8N5G2 whole entry): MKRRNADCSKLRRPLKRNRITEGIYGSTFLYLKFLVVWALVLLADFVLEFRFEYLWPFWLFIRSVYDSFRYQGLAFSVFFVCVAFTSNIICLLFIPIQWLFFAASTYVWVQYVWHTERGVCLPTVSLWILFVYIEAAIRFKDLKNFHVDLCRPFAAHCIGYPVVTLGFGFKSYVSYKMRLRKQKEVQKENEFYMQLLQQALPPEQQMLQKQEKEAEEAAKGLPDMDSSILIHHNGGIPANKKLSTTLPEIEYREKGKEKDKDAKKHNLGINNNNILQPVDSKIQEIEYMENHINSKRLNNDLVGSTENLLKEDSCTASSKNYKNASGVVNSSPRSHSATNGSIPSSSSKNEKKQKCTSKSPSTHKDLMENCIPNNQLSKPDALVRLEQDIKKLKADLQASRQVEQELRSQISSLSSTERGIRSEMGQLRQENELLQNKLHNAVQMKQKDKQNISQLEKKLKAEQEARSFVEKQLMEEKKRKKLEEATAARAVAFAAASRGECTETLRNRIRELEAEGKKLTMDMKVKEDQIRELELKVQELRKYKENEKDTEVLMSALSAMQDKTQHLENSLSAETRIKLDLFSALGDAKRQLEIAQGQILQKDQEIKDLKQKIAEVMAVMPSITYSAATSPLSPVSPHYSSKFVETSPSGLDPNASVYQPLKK

[11] = target: Ras suppressor protein 1 (Homo sapiens) (UniProt Q15404)
[12] = target: Activated RNA polymerase II transcriptional coactivator p15 (Homo sapiens) (UniProt P53999)
[13] = target: Macrophage-stimulating protein receptor (Homo sapiens) (UniProt Q04912)
[14] = target: Y-box-binding protein 3 (Homo sapiens) (UniProt P16989)
Cullin-4B (Homo sapiens) = Cullin-4B (Homo sapiens) (UniProt Q13620)
[15] = target: Exportin-4 (Homo sapiens) (UniProt Q9C0E2)
[16] = target: Macrophage migration inhibitory factor (Homo sapiens) (UniProt P14174)
[17] = target: Testis-expressed protein 10 (Homo sapiens) (UniProt Q9NXF1)
[18] = target: Mitotic deacetylase-associated SANT domain protein (Homo sapiens) (UniProt Q6PJG2)
[19] = target: YTH domain-containing family protein 2 (Homo sapiens) (UniProt Q9Y5A9)
Chain of YTH domain-containing family protein 2 (Homo sapiens) (Q9Y5A9 whole entry, the tested form may be a part): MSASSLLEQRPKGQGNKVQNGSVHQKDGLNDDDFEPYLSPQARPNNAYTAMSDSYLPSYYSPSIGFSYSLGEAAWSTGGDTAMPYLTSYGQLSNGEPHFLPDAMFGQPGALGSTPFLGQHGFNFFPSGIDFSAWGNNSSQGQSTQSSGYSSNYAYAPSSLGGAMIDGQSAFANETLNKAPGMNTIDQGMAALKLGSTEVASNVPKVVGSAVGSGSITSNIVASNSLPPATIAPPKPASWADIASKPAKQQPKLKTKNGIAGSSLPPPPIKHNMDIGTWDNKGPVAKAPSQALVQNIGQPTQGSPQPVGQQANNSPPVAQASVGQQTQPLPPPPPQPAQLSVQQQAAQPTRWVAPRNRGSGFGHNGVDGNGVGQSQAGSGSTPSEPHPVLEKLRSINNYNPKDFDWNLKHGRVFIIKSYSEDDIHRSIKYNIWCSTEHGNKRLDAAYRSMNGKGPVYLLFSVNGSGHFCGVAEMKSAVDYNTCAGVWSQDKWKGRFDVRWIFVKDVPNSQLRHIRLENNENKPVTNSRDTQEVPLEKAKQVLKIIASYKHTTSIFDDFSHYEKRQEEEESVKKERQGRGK

[20] = target: Small ribosomal subunit protein uS2 (Homo sapiens) (UniProt P08865)
[21] = target: N(G),N(G)-dimethylarginine dimethylaminohydrolase 1 (Homo sapiens) (UniProt O94760)
Homo sapiens [22] = species on record: Homo sapiens
Homo sapiens [23] = species on record: Homo sapiens; remark: listed apart in the source
Homo sapiens [24] = species on record: Homo sapiens; remark: listed apart in the source
[25] = target: Nascent polypeptide-associated complex subunit alpha (Homo sapiens) (UniProt Q13765)
[26] = target: eIF5-mimic protein 1 (Homo sapiens) (UniProt Q9Y6E2)
[27] = target: Non-selective voltage-gated ion channel VDAC2 (Homo sapiens) (UniProt P45880)
Chain of Non-selective voltage-gated ion channel VDAC2 (Homo sapiens) (P45880 whole entry, the tested form may be a part): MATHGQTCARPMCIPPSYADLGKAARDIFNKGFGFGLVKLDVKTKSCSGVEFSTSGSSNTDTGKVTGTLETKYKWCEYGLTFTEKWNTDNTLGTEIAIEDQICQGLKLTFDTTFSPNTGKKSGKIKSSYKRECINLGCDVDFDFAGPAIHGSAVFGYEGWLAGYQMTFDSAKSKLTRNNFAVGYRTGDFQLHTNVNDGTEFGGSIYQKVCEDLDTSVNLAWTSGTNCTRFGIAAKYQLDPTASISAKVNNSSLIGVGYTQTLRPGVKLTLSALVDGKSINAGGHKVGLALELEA

[28] = target: Sec1 family domain-containing protein 1 (Homo sapiens) (UniProt Q8WVM8)
Homo sapiens [29] = species on record: Homo sapiens; remark: listed apart in the source
[30] = target: Phosphatidylinositol 4,5-bisphosphate 3-kinase catalytic subunit beta isoform (Homo sapiens) (UniProt P42338)
[31] = target: Nuclear factor NF-kappa-B p105 subunit (Homo sapiens) (UniProt P19838)
[32] = target: Lipid scramblase CLPTM1L (Homo sapiens) (UniProt Q96KA5)
[33] = target: Sorting nexin-2 (Homo sapiens) (UniProt O60749)
[34] = target: Very-long-chain (3R)-3-hydroxyacyl-CoA dehydratase 2 (Homo sapiens) (UniProt Q6Y1H2)
Chain of Very-long-chain (3R)-3-hydroxyacyl-CoA dehydratase 2 (Homo sapiens) (Q6Y1H2 whole entry): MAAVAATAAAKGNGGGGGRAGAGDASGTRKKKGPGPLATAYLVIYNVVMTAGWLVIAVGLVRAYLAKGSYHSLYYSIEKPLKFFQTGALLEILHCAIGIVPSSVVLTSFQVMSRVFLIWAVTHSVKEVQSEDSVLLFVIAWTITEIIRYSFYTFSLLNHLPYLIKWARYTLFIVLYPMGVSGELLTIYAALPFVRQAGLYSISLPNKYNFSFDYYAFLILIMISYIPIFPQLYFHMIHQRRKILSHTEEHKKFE

[35] = target: Inositol 1,4,5-trisphosphate-gated calcium channel ITPR1 (Homo sapiens) (UniProt Q14643)
Tektin-1 (Homo sapiens) = Tektin-1 (Homo sapiens) (UniProt Q969V4)
[36] = target: Ras-related protein Rab-6A (Homo sapiens) (UniProt P20340)
Chain of Ras-related protein Rab-6A (Homo sapiens) (P20340 2-208 limits assumed): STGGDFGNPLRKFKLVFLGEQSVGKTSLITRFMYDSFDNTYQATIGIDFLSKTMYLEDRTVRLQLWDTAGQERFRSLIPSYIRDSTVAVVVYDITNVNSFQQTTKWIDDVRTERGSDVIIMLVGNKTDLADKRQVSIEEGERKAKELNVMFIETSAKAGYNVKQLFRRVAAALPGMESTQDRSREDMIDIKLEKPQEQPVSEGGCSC

[37] = target: EKC/KEOPS complex subunit TPRKB (Homo sapiens) (UniProt Q9Y3C4)
[38] = target: Citrate synthase, mitochondrial (Homo sapiens) (UniProt O75390)
Chain of Citrate synthase, mitochondrial (Homo sapiens) (O75390 whole entry): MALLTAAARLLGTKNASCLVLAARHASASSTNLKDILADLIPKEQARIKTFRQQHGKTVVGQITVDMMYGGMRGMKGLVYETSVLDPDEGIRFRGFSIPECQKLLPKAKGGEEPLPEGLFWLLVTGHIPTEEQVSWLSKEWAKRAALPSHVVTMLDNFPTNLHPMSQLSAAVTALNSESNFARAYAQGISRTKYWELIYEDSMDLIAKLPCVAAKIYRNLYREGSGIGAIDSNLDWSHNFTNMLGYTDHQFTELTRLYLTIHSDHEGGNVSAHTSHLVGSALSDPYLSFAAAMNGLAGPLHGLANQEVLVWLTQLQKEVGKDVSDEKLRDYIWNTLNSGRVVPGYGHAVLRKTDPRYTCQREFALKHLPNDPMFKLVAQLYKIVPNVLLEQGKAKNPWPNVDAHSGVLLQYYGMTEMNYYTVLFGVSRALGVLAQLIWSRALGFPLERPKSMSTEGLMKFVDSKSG

[39] = target: Bone marrow stromal antigen 2 (Homo sapiens) (UniProt Q10589)
Chain of Bone marrow stromal antigen 2 (Homo sapiens) (Q10589 whole entry): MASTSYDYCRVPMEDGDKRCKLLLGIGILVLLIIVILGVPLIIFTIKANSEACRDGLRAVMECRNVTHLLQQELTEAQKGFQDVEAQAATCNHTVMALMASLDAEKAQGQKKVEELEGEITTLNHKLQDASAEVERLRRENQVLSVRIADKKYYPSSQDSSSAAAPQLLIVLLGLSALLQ

[40] = target: Methylcrotonoyl-CoA carboxylase beta chain, mitochondrial (Homo sapiens) (UniProt Q9HCC0)
Homo sapiens [41] = species on record: Homo sapiens; remark: listed apart in the source
[42] = target: Dolichyl-diphosphooligosaccharide--protein glycosyltransferase subunit MAGT1 (Homo sapiens) (UniProt Q9H0U3)
Chain of Dolichyl-diphosphooligosaccharide--protein glycosyltransferase subunit MAGT1 (Homo sapiens) (Q9H0U3 whole entry): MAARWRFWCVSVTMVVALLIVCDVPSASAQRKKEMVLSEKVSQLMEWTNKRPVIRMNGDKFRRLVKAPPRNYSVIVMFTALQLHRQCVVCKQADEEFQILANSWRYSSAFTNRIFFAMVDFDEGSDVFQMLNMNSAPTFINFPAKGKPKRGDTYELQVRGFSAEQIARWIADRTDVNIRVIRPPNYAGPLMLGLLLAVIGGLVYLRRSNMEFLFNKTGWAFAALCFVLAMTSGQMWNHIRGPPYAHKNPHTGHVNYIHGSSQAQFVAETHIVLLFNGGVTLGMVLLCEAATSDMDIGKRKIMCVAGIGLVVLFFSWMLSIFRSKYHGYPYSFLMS

[43] = target: Histone-arginine methyltransferase CARM1 (Homo sapiens) (UniProt Q86X55)
[44] = target: NAD(P) transhydrogenase, mitochondrial (Homo sapiens) (UniProt Q13423)
Also: assay method not described here.

Chain of Glutathione S-transferase kappa 1 (Homo sapiens) (Q9Y2Q3 whole entry): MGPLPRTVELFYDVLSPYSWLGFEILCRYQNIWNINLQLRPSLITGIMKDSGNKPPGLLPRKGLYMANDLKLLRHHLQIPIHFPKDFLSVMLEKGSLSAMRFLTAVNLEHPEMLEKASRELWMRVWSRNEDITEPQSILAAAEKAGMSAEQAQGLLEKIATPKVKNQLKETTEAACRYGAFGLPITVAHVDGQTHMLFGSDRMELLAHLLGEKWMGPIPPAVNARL
Chain of Phenylalanine--tRNA ligase beta subunit (Homo sapiens) (Q9NSD9 whole entry): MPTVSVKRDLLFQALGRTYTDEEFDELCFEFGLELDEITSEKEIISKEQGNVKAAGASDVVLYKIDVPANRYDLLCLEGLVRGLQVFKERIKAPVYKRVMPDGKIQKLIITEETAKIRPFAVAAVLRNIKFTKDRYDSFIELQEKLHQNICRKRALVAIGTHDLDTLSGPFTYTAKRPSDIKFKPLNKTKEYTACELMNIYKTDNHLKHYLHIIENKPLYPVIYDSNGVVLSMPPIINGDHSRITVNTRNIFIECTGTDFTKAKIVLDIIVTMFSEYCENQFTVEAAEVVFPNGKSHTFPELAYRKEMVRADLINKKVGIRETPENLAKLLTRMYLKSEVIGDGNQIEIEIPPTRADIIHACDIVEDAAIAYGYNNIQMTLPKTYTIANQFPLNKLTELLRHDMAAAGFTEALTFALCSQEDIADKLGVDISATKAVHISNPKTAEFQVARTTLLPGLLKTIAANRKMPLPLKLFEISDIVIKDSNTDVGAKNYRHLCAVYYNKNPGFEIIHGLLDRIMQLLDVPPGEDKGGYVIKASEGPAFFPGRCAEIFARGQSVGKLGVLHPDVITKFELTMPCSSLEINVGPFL

Work on Cc1ccc(C(=O)Nc2cccc(C(F)(F)F)c2)cc1Nc1nc(-c2cccnc2)nc2c1cnn2C yielded an ED50 [1] of 0.0971 µM, an ED50 [2] of 5.3 µM and an ED50 [3] of 10.1 µM. It also gave an ED50 [4] of 6.96 µM, an ED50 [5] of 1.85 µM and an ED50 [6] of 0.000417 µM. It also gave an ED50 [7] of 0.0188 µM, an ED50 [8] of 12.4 µM and an ED50 [9] of 1.7 µM. The ED50 [10] was 0.0229 µM, the ED50 (Macoilin (Homo sapiens)) was 0.092 µM and the ED50 [11] was 93.4 µM. The ED50 [12] was 1090 µM, the ED50 [13] was 0.0911 µM and the ED50 [14] was 15.4 µM. It also gave an ED50 (Cullin-4B (Homo sapiens)) of 1.76 µM, an ED50 [15] of 0.00594 µM and an ED50 [16] of 0.00224 µM. The ED50 [17] was 18 µM, the ED50 [18] was 12.8 µM and the ED50 [19] was 0.0685 µM. For the same compound, the ED50 [20] was 1.96 µM, the ED50 [21] was 61.8 µM and the ED50 (Homo sapiens [22]) was 15.7 µM. For the same compound, the ED50 (Homo sapiens [23]) was 0.192 µM, the ED50 (Homo sapiens [24]) was 0.0299 µM and the ED50 [25] was 0.0901 µM. For the same compound, the ED50 [26] was 0.0167 µM, the ED50 [27] was 3.15 µM and the ED50 [28] was 0.171 µM. The ED50 (Homo sapiens [29]) was 3.23 µM, the ED50 [30] was 0.00163 µM and the ED50 [31] was 0.657 µM. It also gave an ED50 [32] of 0.00816 µM, an ED50 [33] of 0.000171 µM and an ED50 [34] of 23.7 µM. For the same compound, the ED50 [35] was 3.43 µM and the ED50 (Tektin-1 (Homo sapiens)) was 44 µM.

For Cc1ccc(C(=O)Nc2cccc(C(F)(F)F)c2)cc1Nc1nc(-c2cccnc2)nc2nn(C)cc12, the ED50 [36] was 0.535 µM, the ED50 [37] was 0.55 µM and the ED50 [38] was 62.4 µM. The ED50 [39] was 1250 µM, the ED50 [40] was 0.102 µM and the ED50 (Homo sapiens [41]) was 0.00599 µM. It also gave an ED50 [42] of 0.686 µM, an ED50 [43] of 0.113 µM and an ED50 [44] of 0.00568 µM.

Reference: ChEMBL document CHEMBL5649169 (ChemMedChem, 2018)
